Laboratory results published in publication PMC5454964, “Isolation of Rice Bran Lectins and Characterization of Their Unique Behavior in Caco-2 Cells” (International Journal of Molecular Sciences, 2017).

How the values were obtained:
[1] = target: T1, RBA1 (rice bran lectin 1) (Oryza sativa, UniProt Q0JF21); experiment: hemagglutination inhibition (rabbit erythrocytes); format: biochemical; settings: pH 7.5, room temperature, 2-fold serial dilution
T1 construct: gene Os04g0173800; disulfide-linked heterodimer of 20- and 12-kDa subunits, 32-33 kDa
T1 sequence (Q0JF21 29-122): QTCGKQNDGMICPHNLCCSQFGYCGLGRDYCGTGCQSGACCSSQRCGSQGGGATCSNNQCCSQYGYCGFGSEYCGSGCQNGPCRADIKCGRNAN
T1 sequence (Q0JF21 123-201): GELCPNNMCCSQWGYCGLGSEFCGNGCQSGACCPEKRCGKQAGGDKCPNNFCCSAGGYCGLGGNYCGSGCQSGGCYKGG
Text: hemagglutination inhibition (rabbit erythrocytes) on RBA1 (rice bran lectin 1)

[2] = target: T2, RBA2 (rice bran lectin 2) (Oryza sativa, UniProt Q0JF21); experiment: hemagglutination inhibition (rabbit erythrocytes); format: biochemical; settings: pH 7.5, room temperature, 2-fold serial dilution
T2 construct: gene Os04g0173800; noncovalent homodimer of 12-kDa subunits, 25 kDa
T2 sequence (Q0JF21 123-201): T1 sequence (Q0JF21 123-201)
Text: hemagglutination inhibition (rabbit erythrocytes) on RBA2 (rice bran lectin 2)

[3] = target: T3, bovine serum albumin (BSA) (Bos taurus, UniProt P02769); experiment: frontal affinity chromatography, immobilised protein; format: binding; settings: pH 7.3, 25 °C, EDTA-PB
T3 construct: gene ALB
T3 sequence (P02769 25-607): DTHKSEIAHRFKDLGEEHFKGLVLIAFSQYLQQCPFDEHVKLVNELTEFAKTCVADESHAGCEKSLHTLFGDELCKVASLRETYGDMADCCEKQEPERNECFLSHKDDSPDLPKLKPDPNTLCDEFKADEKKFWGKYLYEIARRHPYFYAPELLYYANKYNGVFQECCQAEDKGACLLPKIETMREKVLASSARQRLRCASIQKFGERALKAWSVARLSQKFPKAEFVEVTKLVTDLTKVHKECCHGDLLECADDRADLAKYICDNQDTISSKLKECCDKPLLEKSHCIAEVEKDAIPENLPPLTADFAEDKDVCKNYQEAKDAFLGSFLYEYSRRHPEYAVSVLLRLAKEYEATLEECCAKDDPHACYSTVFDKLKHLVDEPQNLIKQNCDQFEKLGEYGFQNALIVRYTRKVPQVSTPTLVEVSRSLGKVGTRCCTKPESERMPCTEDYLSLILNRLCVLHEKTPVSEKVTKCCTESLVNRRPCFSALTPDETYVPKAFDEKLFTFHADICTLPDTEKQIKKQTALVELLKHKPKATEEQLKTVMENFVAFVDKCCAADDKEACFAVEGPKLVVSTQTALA

| Compound | RBA1 [1] [mM] | RBA2 [2] [mM] | hemagglutination inhibition concentration [2] [mM] | V - V0 [3] |
| --- | --- | --- | --- | --- |
| CC(=O)N[C@H]1[C@H](O[C@H]2[C@H](O)[C@@H](NC(C)=O)C(O)O[C@@H]2CO)O[C@H](CO)[C@@H](O)[C@@H]1O (stereo partly shown) [Di-N-acetylchitobiose] | 0.78 | 6.25 |  |  |
| N[C@H]1[C@H](O[C@H]2[C@H](O)[C@@H](N)C(O)O[C@@H]2CO)O[C@H](CO)[C@@H](O)[C@@H]1O (stereo partly shown) [Chitobiose] | 100 |  |  |  |
| COC(=O)c1ccccc1-c1c2ccc(=N)cc-2oc2cc(N)ccc12 [Rhodamine 123] |  |  |  | BSA showed a similar interaction with RH. |
| N[C@H]1C(O)O[C@H](CO)[C@@H](O)[C@@H]1O (stereo partly drawn) [D-Glucosamine] | > 200 | 3.1 |  |  |
| CC(=O)N[C@H]1[C@H](O[C@H]2[C@H](O)[C@@H](NC(C)=O)[C@H](O[C@H]3[C@H](O)[C@@H](NC(C)=O)C(O)O[C@@H]3CO)O[C@@H]2CO)O[C@H](CO)[C@@H](O[C@@H]2O[C@H](CO)[C@@H](O[C@@H]3O[C@H](CO)[C@@H](O[C@@H]4O[C@H](CO)[C@@H](O)[C@H](O)[C@H]4NC(C)=O)[C@H](O)[C@H]3NC(C)=O)[C@H](O)[C@H]2NC(C)=O)[C@@H]1O (stereo partly shown) [Hexa-N-acetylchitohexaose] | 0.04 |  | 0.04 |  |
| N[C@H]1C(O)O[C@H](CO)[C@H](O)[C@@H]1O (stereo partly drawn) [D-Galactosamine] | > 200 | 0.8 |  |  |

Second part, led by results:

| RBA1 [1] [mM] | RBA2 [2] [mM] | hemagglutination inhibition concentration [2] [mM] | Compound | V - V0 [3] |
| --- | --- | --- | --- | --- |
| 25 | 50 |  | CC(=O)N[C@H]1C(O)O[C@H](CO)[C@@H](O)[C@@H]1O (stereo partly drawn) [N-Acetyl D-glucosamine] |  |
| 0.09 | 0.39 |  | CC(=O)N[C@H]1[C@H](O[C@H]2[C@H](O)[C@@H](NC(C)=O)C(O)O[C@@H]2CO)O[C@H](CO)[C@@H](O[C@@H]2O[C@H](CO)[C@@H](O)[C@H](O)[C@H]2NC(C)=O)[C@@H]1O (stereo partly shown) [Tri-N-acetylchitotriose] |  |
| 0.04 |  | 0.04 | CC(=O)N[C@H]1[C@H](O[C@H]2[C@H](O)[C@@H](NC(C)=O)C(O)O[C@@H]2CO)O[C@H](CO)[C@@H](O[C@@H]2O[C@H](CO)[C@@H](O[C@@H]3O[C@H](CO)[C@@H](O)[C@H](O)[C@H]3NC(C)=O)[C@H](O)[C@H]2NC(C)=O)[C@@H]1O (stereo partly shown) [Tetra-N-acetylchitotetraose] |  |
|  | 50 |  | CC(=O)N[C@H]1C(O)O[C@H](CO)[C@H](O)[C@@H]1O (stereo partly drawn) [N-Acetyl D-galactosamine] |  |
| 0.02 | 0.04 |  | CC(=O)N[C@H]1[C@H](O[C@H]2[C@H](O)[C@@H](NC(C)=O)[C@H](O[C@H]3[C@H](O)[C@@H](NC(C)=O)C(O)O[C@@H]3CO)O[C@@H]2CO)O[C@H](CO)[C@@H](O[C@@H]2O[C@H](CO)[C@@H](O[C@@H]3O[C@H](CO)[C@@H](O)[C@H](O)[C@H]3NC(C)=O)[C@H](O)[C@H]2NC(C)=O)[C@@H]1O (stereo partly shown) [Penta-N-acetylchitopentaose] |  |
